The source of these data is ChEMBL document CHEMBL1153704, “Imidazo[1,2-a]pyrazine diaryl ureas: inhibitors of the receptor tyrosine kinase EphB4” (Bioorg Med Chem Lett, 2009).

Each structure is given as a SMILES string.

For test [1], the target named is T1, Ephrin type-B receptor 4 (Homo sapiens, UniProt P54760).
T1 sequence (P54760 whole entry): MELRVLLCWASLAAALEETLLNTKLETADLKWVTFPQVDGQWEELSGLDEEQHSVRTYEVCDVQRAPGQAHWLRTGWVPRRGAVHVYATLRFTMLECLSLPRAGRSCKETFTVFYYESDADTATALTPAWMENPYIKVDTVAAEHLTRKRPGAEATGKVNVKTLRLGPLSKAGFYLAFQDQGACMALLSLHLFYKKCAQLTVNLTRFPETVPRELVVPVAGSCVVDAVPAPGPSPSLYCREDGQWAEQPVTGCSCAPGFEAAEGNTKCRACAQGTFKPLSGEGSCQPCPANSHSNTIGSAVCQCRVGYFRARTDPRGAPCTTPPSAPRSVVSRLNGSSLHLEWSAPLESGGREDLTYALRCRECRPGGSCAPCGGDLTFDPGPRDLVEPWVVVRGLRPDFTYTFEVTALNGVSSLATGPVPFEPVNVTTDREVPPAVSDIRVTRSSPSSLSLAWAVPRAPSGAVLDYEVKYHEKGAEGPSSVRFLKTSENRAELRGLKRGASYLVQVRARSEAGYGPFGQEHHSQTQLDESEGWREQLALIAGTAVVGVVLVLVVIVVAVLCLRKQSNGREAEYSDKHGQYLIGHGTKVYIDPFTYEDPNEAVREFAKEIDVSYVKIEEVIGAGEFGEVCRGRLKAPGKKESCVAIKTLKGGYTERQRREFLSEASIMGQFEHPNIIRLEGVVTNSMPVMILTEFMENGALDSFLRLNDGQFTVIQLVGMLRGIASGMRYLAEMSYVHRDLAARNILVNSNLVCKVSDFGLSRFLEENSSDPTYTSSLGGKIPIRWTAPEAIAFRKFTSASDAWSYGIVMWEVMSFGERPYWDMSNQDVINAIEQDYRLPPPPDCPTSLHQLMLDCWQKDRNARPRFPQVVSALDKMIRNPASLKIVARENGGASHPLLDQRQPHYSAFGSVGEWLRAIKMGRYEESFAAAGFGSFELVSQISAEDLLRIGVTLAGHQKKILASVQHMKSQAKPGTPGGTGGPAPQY
Nature of the test: Inhibition of EphB4 after 1 hr.

Test [2] concerns the target T2, Ephrin type-B receptor 4 (Homo sapiens) (UniProt P54760).
T2 sequence (whole entry): T1 sequence (P54760 whole entry)
Nature of the test: Inhibition of EphB4 at 10 uM after 1 hr.

Test [3] deals with T2, Ephrin type-B receptor 4 (Homo sapiens). Description: Inhibition of EphB4 at 1 uM after 1 hr.

On to `COc1cccc(NC(=O)Nc2cccc(-c3cn4ccnc4c(NCc4ccncc4)n3)c2)c1`, for which 1700 nM corresponded to half-maximal inhibition in test [1] (IC50). Same read-out and setting: the figure for `O=C(Nc1cccc(-c2cn3ccnc3c(NCc3ccncc3)n2)c1)Nc1cc(C(F)(F)F)ccc1O` is 37 nM. With `O=C(Nc1cccc(-c2cn3ccnc3c(NCc3ccccn3)n2)c1)Nc1cccc(C(F)(F)F)c1`, the inhibition (usually the change of the read-out against control, counted positive when it falls) in test [2] turned out to be 32%. `COc1cc(OC)c(NC(=O)Nc2cccc(-c3cn4ccnc4c(NCc4ccncc4)n3)c2)cc1Br`: in test [1], 206 nM corresponded to half-maximal inhibition (IC50). That is a sub-micromolar value.

For `Cc1cccc(NC(=O)Nc2cccc(-c3cn4ccnc4c(NCc4ccncc4)n3)c2)c1`, in test [1], the IC50 (commonly the midpoint of a concentration-inhibition curve) stood at 300 nM. The same measure, in the same setting: the figure for `COc1cc(OC)c(NC(=O)Nc2cccc(-c3cn4ccnc4c(NCc4ccncc4)n3)c2)cc1Cl` is 402 nM. In test [3], `O=C(Nc1ccc(C(F)(F)F)cc1)Nc1cccc(-c2cn3ccnc3c(NCc3ccncc3)n2)c1` came in with an inhibition of 10%. Regarding `CSc1cccc(NC(=O)Nc2cccc(-c3cn4ccnc4c(NCc4ccncc4)n3)c2)c1`, the IC50 in test [1] came out at 1200 nM. That is a single-digit micromolar value. For the molecule `O=C(Nc1cccc(-c2cn3ccnc3c(NCc3ccncc3)n2)c1)Nc1c(Cl)cccc1Cl`, in test [1], 1000 nM corresponded to half-maximal inhibition (IC50). `O=C(Nc1ccccc1)Nc1cccc(-c2cn3ccnc3c(NCc3ccncc3)n2)c1`: the inhibition in test [3] came out at 10%. In the case of `O=C(Nc1cccc(-c2cn3ccnc3c(Nc3ccccc3)n2)c1)Nc1cccc(C(F)(F)F)c1`, the inhibition in test [2] is 36%. In the case of `COc1cc(OC)c(C(F)(F)F)cc1NC(=O)Nc1cccc(-c2cn3ccnc3c(NCc3ccncc3)n2)c1`, in test [1], the IC50 amounted to 518 nM. This lies in the sub-micromolar range. On to `COc1ccc(C(F)(F)F)cc1NC(=O)CNc1cccc(-c2cn3ccnc3c(NCc3ccncc3)n2)c1`, for which, in test [3], the inhibition stood at 2.9%. As for `COc1ccc(C#N)cc1NC(=O)Nc1cccc(-c2cn3ccnc3c(NCc3ccncc3)n2)c1`, in test [1], inhibition was half-maximal at 125 nM (IC50). With `Cc1ccccc1NC(=O)Nc1cccc(-c2cn3ccnc3c(NCc3ccncc3)n2)c1`, the inhibition in test [3] stood at 30%. The same measure, in the same setting: to `O=C(Nc1cccc(-c2cn3ccnc3c(NCc3ccncc3)n2)c1)Nc1ccccc1F` belongs 22%. `O=C(Nc1cccc(F)c1)Nc1cccc(-c2cn3ccnc3c(NCc3ccncc3)n2)c1` displayed an inhibition in test [3] of 47%.

On to `O=C(Nc1cccc(-c2cn3ccnc3c(NCc3ccncc3)n2)c1)Nc1ccccc1Br`, for which, in test [1], the IC50 was determined as 1700 nM.

`O=C(Nc1cccc(Br)c1)Nc1cccc(-c2cn3ccnc3c(NCc3ccncc3)n2)c1` showed an IC50 in test [1] of 213 nM. On to `O=C(Cc1cccc(C(F)(F)F)c1)Nc1cccc(-c2cn3ccnc3c(NCc3ccncc3)n2)c1`, for which the IC50 in test [1] amounted to 2400 nM. Molecule `COc1ccccc1NC(=O)Nc1cccc(-c2cn3ccnc3c(NCc3ccncc3)n2)c1` returned an inhibition in test [3] of 54%. On to `O=C(Nc1cccc(-c2cn3ccnc3c(NCc3ccncc3)n2)c1)Nc1ccc(Cl)c(C(F)(F)F)c1`, for which half-maximal inhibition in test [1] (IC50) required 1200 nM. As for `CSc1ccccc1NC(=O)Nc1cccc(-c2cn3ccnc3c(NCc3ccncc3)n2)c1`, the inhibition in test [3] came to 63%.

As for `O=C(Nc1cccc(-c2cn3ccnc3c(NCc3ccncc3)n2)c1)Nc1ccc(Cl)c(Cl)c1`, it took 2500 nM to reach half-maximal inhibition in test [1] (IC50). `CCc1ccc(NC(=O)Nc2cccc(-c3cn4ccnc4c(NCc4ccncc4)n3)c2)cc1` gave an inhibition in test [3] of 10%. In test [1], `O=C(Nc1cc(Cl)cc(Cl)c1)Nc1cccc(-c2cn3ccnc3c(NCc3ccncc3)n2)c1` had an IC50 of 1800 nM. In other words, the single-digit micromolar range. Same read-out and setting: to `O=C(Nc1cccc(-c2cn3ccnc3c(NCc3ccncc3)n2)c1)Nc1ccc(Cl)cc1Cl` belongs 1900 nM.

Consider `O=C(Nc1cccc(-c2cn3ccnc3c(NCc3ccc(C(=O)O)cc3)n2)c1)Nc1cccc(C(F)(F)F)c1`, for which, in test [1], half-maximal inhibition (IC50) was put at 5300 nM. Same read-out and setting: the figure for `O=C(NCc1cccc(C(F)(F)F)c1)Nc1cccc(-c2cn3ccnc3c(NCc3ccncc3)n2)c1` is 2100 nM; for `O=C(Nc1cccc(-c2cn3ccnc3c(NCc3ccncc3)n2)c1)Nc1cc(C(F)(F)F)ccc1Cl` it is 66 nM. Still for that read-out and setting: the figure for `O=C(Nc1cccc(-c2cn3ccnc3c(NCc3ccncc3)n2)c1)Nc1ccc(F)c(C(F)(F)F)c1` is 850 nM; for `O=C(Nc1ccc(-c2cn3ccnc3c(NCc3ccncc3)n2)cc1)Nc1cccc(C(F)(F)F)c1` it is 50000 nM.

`CN(Cc1ccncc1)c1nc(-c2cccc(NC(=O)Nc3cccc(C(F)(F)F)c3)c2)cn2ccnc12` yielded an IC50 in test [1] of 69 nM. The same measure, in the same setting: the figure for `N#Cc1cccc(NC(=O)Nc2cccc(-c3cn4ccnc4c(NCc4ccncc4)n3)c2)c1` is 1900 nM. Molecule `O=C(Nc1cccc(-c2cn3ccnc3c(NCc3ccncc3)n2)c1)Nc1ccccc1C(F)(F)F` returned an inhibition in test [3] of 41%. `Cc1ccc(C)c(NC(=O)Nc2cccc(-c3cn4ccnc4c(NCc4ccncc4)n3)c2)c1` returned a concentration for half-maximal inhibition (IC50) in test [1] of 938 nM. On the same count and under the same terms, to `O=C(Nc1cccc(-c2cn3ccnc3c(NCc3ccncc3)n2)c1)Nc1cc(Cl)c(Cl)cc1Cl` belongs 517 nM; to `O=C(Nc1cccc(-c2cn3ccnc3c(NCc3ccccc3)n2)c1)Nc1cccc(C(F)(F)F)c1`, 50000 nM; to `O=C(Nc1cccc(-c2cn3ccnc3c(NCC3CCNCC3)n2)c1)Nc1cccc(C(F)(F)F)c1`, 50000 nM. On the same count and under the same terms, the figure for `CCOc1cc(OCC)c(C(F)(F)F)cc1NC(=O)Nc1cccc(-c2cn3ccnc3c(NCc3ccncc3)n2)c1` is 211 nM; for `O=C(Nc1cccc(-c2cn3ccnc3c(NCc3cccnc3)n2)c1)Nc1cccc(C(F)(F)F)c1` it is 7800 nM. Same read-out and setting: the figure for `O=C(Nc1cccc(Oc2ccccc2)c1)Nc1cccc(-c2cn3ccnc3c(NCc3ccncc3)n2)c1` is 10500 nM. In test [1], `Cc1ccc(Cl)cc1NC(=O)Nc1cccc(-c2cn3ccnc3c(NCc3ccncc3)n2)c1` displayed an IC50 of 160 nM. In test [2], `O=C(Nc1cccc(-c2cn3ccnc3c(Nc3ccncc3)n2)c1)Nc1cccc(C(F)(F)F)c1` returned an inhibition of 32%. `Cc1ccc(NC(=O)Nc2cccc(-c3cn4ccnc4c(NCc4ccncc4)n3)c2)cc1` showed an IC50 in test [1] of 7900 nM.

`COc1ccc(Cl)cc1NC(=O)Nc1cccc(-c2cn3ccnc3c(N)n2)c1`: in test [1], the IC50 amounted to 5400 nM. Still for that read-out and setting: the figure for `O=C(Nc1cccc(-c2cn3ccnc3c(NCc3ccncc3)n2)c1)Nc1cc(Cl)ccc1Oc1ccccc1` is 138 nM. For the molecule `O=C(Nc1cccc(-c2cn3ccnc3c(NCCc3ccncc3)n2)c1)Nc1cccc(C(F)(F)F)c1`, in test [1], the IC50 came to 158 nM. `O=C(Nc1cccc(-c2cn3ccnc3c(Nc3cccnc3)n2)c1)Nc1cccc(C(F)(F)F)c1` had an inhibition in test [3] of 1%. In test [1], `COc1ccc(Cl)cc1NC(=O)Nc1cccc(-c2cn3ccnc3c(NCc3ccncc3)n2)c1` yielded an IC50 of 77 nM.

Take `Cc1ccc(NC(=O)Nc2cccc(-c3cn4ccnc4c(NCc4ccncc4)n3)c2)cc1C(F)(F)F`: half-maximal inhibition in test [1] (IC50) required 810 nM. On the same count and under the same terms, the figure for `O=C(Nc1cccc(-c2cn3ccnc3c(NCc3ccncc3)n2)c1)Nc1ccccc1Cl` is 2900 nM; for `COc1ccc(C)cc1NC(=O)Nc1cccc(-c2cn3ccnc3c(NCc3ccncc3)n2)c1` it is 78 nM; for `O=C(Nc1cccc(Cl)c1)Nc1cccc(-c2cn3ccnc3c(NCc3ccncc3)n2)c1` it is 165 nM. Same read-out and setting: the figure for `O=C(Nc1ccc(F)cc1)Nc1cccc(-c2cn3ccnc3c(NCc3ccncc3)n2)c1` is 7400 nM; for `CNc1nc(-c2cccc(NC(=O)Nc3cc(Cl)ccc3OC)c2)cn2ccnc12` it is 5700 nM. Still for that read-out and setting: the figure for `O=S(=O)(Nc1cccc(-c2cn3ccnc3c(NCc3ccncc3)n2)c1)c1cccc(C(F)(F)F)c1` is 50000 nM; for `O=C(Nc1cccc(-c2cn3ccnc3c(NCc3ccncc3)n2)c1)c1cccc(C(F)(F)F)c1` it is 744 nM; for `O=C(Nc1cccc(-c2cn3ccnc3c(OCc3ccncc3)n2)c1)Nc1cccc(C(F)(F)F)c1` it is 105 nM. As for `O=C(Nc1ccc(Cl)cc1)Nc1cccc(-c2cn3ccnc3c(NCc3ccncc3)n2)c1`, in test [1], the IC50 stood at 4600 nM. Regarding `O=C(Nc1ccc(Br)cc1)Nc1cccc(-c2cn3ccnc3c(NCc3ccncc3)n2)c1`, the inhibition in test [3] was 22%. Still for that read-out and setting: to `O=C(Nc1cccc(-c2cn3ccnc3c(NCc3ccncc3)n2)c1)Nc1ccccc1Oc1ccccc1` belongs 22%. In turn, `O=C(NCc1cccc(C(F)(F)F)c1)c1cccc(-c2cn3ccnc3c(NCc3ccncc3)n2)c1` came in with an IC50 in test [1] of 11100 nM. Still for that read-out and setting: the figure for `O=C(Nc1cccc(-c2cn3ccnc3c(NCc3ccncc3)n2)c1)Nc1cccc(Cl)c1Cl` is 5700 nM; for `O=C(NCc1cccc(-c2cn3ccnc3c(NCc3ccncc3)n2)c1)Nc1cccc(C(F)(F)F)c1` it is 6800 nM; for `O=C(Nc1cccc(-c2cn3ccnc3c(NCc3ccncc3)n2)c1)Nc1cc(Cl)ccc1Cl` it is 101 nM. In turn, `COc1ccc(NC(=O)Nc2cccc(-c3cn4ccnc4c(NCc4ccncc4)n3)c2)cc1` displayed an inhibition in test [3] of 10%.
